Test systems include NCI-H522; EKVX; 786-0; MDA-MB-231; COLO 205; SF-539; BT-549; HCT-15; NCI-H460; PC-3; SK-MEL-28; A549; SR; NCI/ADR-RES; MDA-N; MCF7; UO-31; T47D; CCRF-CEM.
What all share (experiment): inhibition of tumour cell growth, NCI panel, 48 h

SMILES strings stand for the structures. Several values for one entry are separate records, joined by “and”; a condition that tells them apart may be missing. Equal entries are not always repeated.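 Tested at 5 concentrations; 48 h exposure; 96-well plates; endpoints linearly interpolated, else capped at highest concentration. GI50 = concentration required for 50% inhibition of growth.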 Activity calls are given as the source filed them. No stated cut-off is given here; in the data, active = GI50 up to about 1.1 µM and inactive = higher.

For `CN(C)S(=O)(=O)Nc1ccccn1`, the GI50 in the test on NCI-H522, in the test with EKVX, in the test on 786-0, with MDA-MB-231, in the test on COLO 205 and with SF-539 was > 100 µM (inactive) each time. In addition, the GI50 with BT-549 was > 100 µM (inactive); with HCT-15, > 100 µM; in the test with NCI-H460, > 100 µM (inactive); in the test with PC-3, > 100 µM (inactive); with SK-MEL-28, > 100 µM (inactive); in the test on A549 it was > 100 µM (inactive). Further, the GI50 with SR, in the test with NCI/ADR-RES, in the test with MDA-N, with MCF7 and in the test with UO-31 was > 100 µM (inactive) each time.
In the case of `COc1cc([C@H]2CC(=O)C[C@H](c3cc(OC)c(OC)c(OC)c3)C23C(=O)c2ccccc2C3=O)cc(OC)c1OC`, the GI50 in the test with NCI-H522 is 25 µM (inactive); with EKVX, > 100 µM (inactive); with 786-0, 77.6 µM (inactive); in the test with MDA-MB-231, 56.9 µM (inactive); in the test with COLO 205, > 100 µM (inactive); in the test on T47D, > 100 µM (inactive). Further, the GI50 was 45.7 µM (inactive) with SF-539; 91.4 µM (inactive) with BT-549; > 100 µM in the test on HCT-15; 91.2 µM (inactive) in the test with NCI-H460; > 100 µM (inactive) in the test with PC-3; > 100 µM (inactive) with SK-MEL-28. For the same molecule, the GI50 in the test with A549 was > 100 µM (inactive); with SR, > 100 µM (inactive); with NCI/ADR-RES, > 100 µM (inactive); in the test on MCF7, 71.3 µM (inactive); in the test with UO-31 it was > 100 µM (inactive).
In the case of `CC(=O)OCC1OC(n2c(C)c(C)cc(C#N)c2=S)C(OC(C)=O)C(OC(C)=O)C1OC(C)=O` (configuration not stated), the GI50 in the test with NCI-H522 is > 100 µM (inactive) and 52.4 µM (inactive); in the test on EKVX, > 100 µM (inactive); in the test on 786-0, > 100 µM (inactive); in the test on MDA-MB-231, > 100 µM (inactive); in the test with T47D, > 100 µM (inactive); in the test on SF-539 it was > 100 µM (inactive). For the same molecule, the GI50 in the test on BT-549 is > 100 µM (inactive); in the test on HCT-15, > 100 µM; in the test with NCI-H460, > 100 µM (inactive); with PC-3, > 100 µM (inactive); with SK-MEL-28 it was > 100 µM (inactive); in the test on A549 it was > 100 µM (inactive). In addition, the GI50 in the test with CCRF-CEM was > 10 µM (inactive); in the test with SR, > 100 µM (inactive); with MDA-N, > 100 µM (inactive); in the test with MCF7, > 100 µM (inactive); in the test with UO-31, > 100 µM (inactive).
Consider `O=C(Cc1csc(N/N=C2\C(=O)Nc3ccccc32)n1)Nc1ccccc1`, for which the GI50 was 19.9 µM (inactive) in the test with EKVX; 17.7 µM (inactive) in the test with 786-0; 28.8 µM (inactive) with MDA-MB-231; 55.1 µM (inactive) in the test on COLO 205; 28.4 µM (inactive) in the test with T47D; 26.4 µM (inactive) in the test with SF-539. Also, the GI50 in the test on BT-549 was 41.7 µM (inactive); in the test with HCT-15, 38.5 µM; in the test on NCI-H460, 31.6 µM (inactive); in the test with SK-MEL-28, 21 µM (inactive); with A549, 39.9 µM (inactive); in the test on NCI/ADR-RES it was 20 µM (inactive). Moreover, the GI50 is 54.3 µM (inactive) in the test on MCF7 and 25.3 µM (inactive) with UO-31.
As for `COc1ccccc1C(C1=C(O)COC1=O)c1cc2c(cc1OC(C)=O)OCO2` (configuration not stated), the GI50 in the test with EKVX, in the test with 786-0, in the test with MDA-MB-231, in the test with COLO 205, with SF-539 and in the test on BT-549 was > 100 µM (inactive) each time. In addition, the GI50 with HCT-15 was > 100 µM; with NCI-H460 it was > 100 µM (inactive); in the test on PC-3, > 100 µM (inactive); in the test on SK-MEL-28, > 100 µM (inactive); with A549, > 100 µM (inactive); in the test with CCRF-CEM, > 100 µM (inactive). In addition, the GI50 in the test with SR, with NCI/ADR-RES, with MDA-N, in the test on MCF7 and with UO-31 was > 100 µM (inactive) each time.
For the molecule `C=Cn1c([N+](=O)[O-])cnc1/C=C/c1ccc(C(=O)OCCN2CCOCC2)cc1`, the GI50 with NCI-H522, in the test on EKVX, in the test on 786-0, with MDA-MB-231, in the test on COLO 205 and in the test with T47D was > 100 µM (inactive) in each case. The GI50 in the test with SF-539 is > 100 µM (inactive); with BT-549 it was > 100 µM (inactive); in the test on HCT-15, > 100 µM; in the test on NCI-H460, > 100 µM (inactive); in the test with PC-3, > 100 µM (inactive); in the test with SK-MEL-28, > 100 µM (inactive). Besides, the GI50 with A549, in the test on CCRF-CEM, in the test on NCI/ADR-RES and in the test on MCF7 was > 100 µM (inactive) in each case.
Consider `C[C@H](C(O)CC(=O)C(C)(C)O)[C@H]1CC[C@@]2(C)[C@@H]3CC[C@H]4C(C)(C)[C@@H](OC5OC(COC6OC(CO)C(O)C(O)C6O)C(O)C(O)C5O)CC[C@]4(C)C3=CC[C@]12C` (some centres not stated), for which the GI50 in the test on NCI-H522, in the test on EKVX, with 786-0, with MDA-MB-231, with COLO 205 and in the test on T47D was > 100 µM (inactive) in each case. Further, the GI50 with SF-539 is > 100 µM (inactive); in the test on BT-549 it was > 100 µM (inactive); with HCT-15, > 100 µM; with NCI-H460, > 100 µM (inactive); in the test on PC-3, > 100 µM (inactive); in the test on SK-MEL-28, > 100 µM (inactive). Further, the GI50 in the test on A549, in the test with CCRF-CEM, with SR, in the test on MDA-N, with MCF7 and with UO-31 was > 100 µM (inactive) in each case.
As to `C/C=C1\CN2CCC34c5ccccc5N(C)C35OCC4(C(=O)OC)C1CC25` (configuration not stated), the GI50 in the test with NCI-H522 is 47.8 µM (inactive); in the test on EKVX it was 77.1 µM (inactive); in the test with 786-0, 76.2 µM (inactive); in the test with MDA-MB-231, > 100 µM (inactive); in the test on COLO 205, 16 µM (inactive); in the test on T47D, 28.8 µM (inactive). Besides, the GI50 in the test with SF-539 was 83 µM (inactive); in the test with BT-549, 34.3 µM (inactive); in the test on HCT-15, 23.1 µM; in the test on NCI-H460, 25.5 µM (inactive); with PC-3 it was 27.9 µM (inactive); in the test with SK-MEL-28, 27.7 µM (inactive). The GI50 was 61.4 µM (inactive) with A549; 42.7 µM (inactive) in the test on CCRF-CEM; 26.2 µM (inactive) in the test with SR; 46.5 µM (inactive) in the test on MDA-N; 40.7 µM (inactive) in the test with MCF7; 70.6 µM (inactive) in the test on UO-31.
On to `[N-]=[N+]=CC(=O)CCC(=O)N(c1ccccc1)c1ccccc1`, for which the GI50 in the test on EKVX, in the test with 786-0, with MDA-MB-231, with T47D, with SF-539 and in the test with BT-549 was > 10 µM (inactive) each time. In addition, the GI50 was > 10 µM with HCT-15; > 10 µM (inactive) with NCI-H460; > 10 µM (inactive) in the test with PC-3; > 10 µM (inactive) with SK-MEL-28; > 10 µM (inactive) in the test with A549; > 10 µM (inactive) in the test with CCRF-CEM. For the same molecule, the GI50 in the test with SR, in the test with MDA-N, with MCF7 and in the test with UO-31 was > 10 µM (inactive) throughout.
With `N#C/C=C\c1ccc(-c2cc(C(F)(F)F)cc(C(F)(F)F)c2)o1`, the GI50 was 48 µM (inactive) in the test with NCI-H522; 34.1 µM (inactive) with EKVX; 27.2 µM (inactive) in the test with 786-0; 36.8 µM (inactive) in the test with MDA-MB-231; > 100 µM (inactive) in the test with COLO 205; 10 µM (inactive) in the test with SF-539. Also, the GI50 with BT-549 is 36.7 µM (inactive); in the test on NCI-H460, 86.3 µM (inactive); with PC-3 it was > 100 µM (inactive); with SK-MEL-28 it was 45.3 µM (inactive); with A549, 91.6 µM (inactive); in the test on CCRF-CEM, 47 µM (inactive). In addition, the GI50 in the test with SR was 19.3 µM (inactive); in the test with NCI/ADR-RES it was 41.6 µM (inactive); in the test on MDA-N, 22 µM (inactive); in the test on MCF7, 71.8 µM (inactive); in the test on UO-31 it was > 100 µM (inactive).
On to `COc1cc(CNC(=O)[C@H](Cc2ccc(O)cn2)NC(C)=O)cc(OC)c1`, for which the GI50 in the test on NCI-H522 is > 100 µM (inactive); in the test with EKVX, 60 µM (inactive); in the test on 786-0 it was > 100 µM (inactive); in the test with COLO 205, > 100 µM (inactive); with T47D, 75 µM (inactive); in the test on SF-539, > 100 µM (inactive). Moreover, the GI50 with BT-549 is > 100 µM (inactive); with HCT-15, > 100 µM; in the test on NCI-H460 it was > 100 µM (inactive); in the test with PC-3 it was 99.3 µM (inactive); with SK-MEL-28, > 100 µM (inactive); in the test on A549, > 100 µM (inactive). Moreover, the GI50 with CCRF-CEM, with NCI/ADR-RES, in the test with MDA-N, in the test with MCF7 and with UO-31 was > 100 µM (inactive) each time.
Take `O=C(O)Cc1cccc2c(=O)c3cccc([N+](=O)[O-])c3oc12`: the GI50 with NCI-H522, in the test on EKVX, with 786-0, in the test with MDA-MB-231, in the test on COLO 205 and in the test with T47D was > 100 µM (inactive) in each case. The GI50 in the test with SF-539 is > 100 µM (inactive); in the test on BT-549 it was > 100 µM (inactive); in the test on HCT-15, > 100 µM; in the test with NCI-H460, > 100 µM (inactive); in the test on PC-3, > 100 µM (inactive); in the test on SK-MEL-28, > 100 µM (inactive). The GI50 with A549, with CCRF-CEM, with SR, in the test with MDA-N, in the test on MCF7 and with UO-31 was > 100 µM (inactive) each time.

The record behind these values is ChEMBL document CHEMBL1201862, “PubChem BioAssay data set” (2004).
